Reference: US20050143430A1, “Catechol bioisosteres” (priority 2002, published 2005)
pIC50: −log10 of the molar value.

Biological target: Insulin-like Growth Factor 1 Receptor (IGF-1R) (Homo sapiens, UniProt P08069)
Experiment: IGF-1R inhibition in vitro
Format: biochemical

Chain of Insulin-like Growth Factor 1 Receptor (IGF-1R) (P08069 31-1367, species assumed): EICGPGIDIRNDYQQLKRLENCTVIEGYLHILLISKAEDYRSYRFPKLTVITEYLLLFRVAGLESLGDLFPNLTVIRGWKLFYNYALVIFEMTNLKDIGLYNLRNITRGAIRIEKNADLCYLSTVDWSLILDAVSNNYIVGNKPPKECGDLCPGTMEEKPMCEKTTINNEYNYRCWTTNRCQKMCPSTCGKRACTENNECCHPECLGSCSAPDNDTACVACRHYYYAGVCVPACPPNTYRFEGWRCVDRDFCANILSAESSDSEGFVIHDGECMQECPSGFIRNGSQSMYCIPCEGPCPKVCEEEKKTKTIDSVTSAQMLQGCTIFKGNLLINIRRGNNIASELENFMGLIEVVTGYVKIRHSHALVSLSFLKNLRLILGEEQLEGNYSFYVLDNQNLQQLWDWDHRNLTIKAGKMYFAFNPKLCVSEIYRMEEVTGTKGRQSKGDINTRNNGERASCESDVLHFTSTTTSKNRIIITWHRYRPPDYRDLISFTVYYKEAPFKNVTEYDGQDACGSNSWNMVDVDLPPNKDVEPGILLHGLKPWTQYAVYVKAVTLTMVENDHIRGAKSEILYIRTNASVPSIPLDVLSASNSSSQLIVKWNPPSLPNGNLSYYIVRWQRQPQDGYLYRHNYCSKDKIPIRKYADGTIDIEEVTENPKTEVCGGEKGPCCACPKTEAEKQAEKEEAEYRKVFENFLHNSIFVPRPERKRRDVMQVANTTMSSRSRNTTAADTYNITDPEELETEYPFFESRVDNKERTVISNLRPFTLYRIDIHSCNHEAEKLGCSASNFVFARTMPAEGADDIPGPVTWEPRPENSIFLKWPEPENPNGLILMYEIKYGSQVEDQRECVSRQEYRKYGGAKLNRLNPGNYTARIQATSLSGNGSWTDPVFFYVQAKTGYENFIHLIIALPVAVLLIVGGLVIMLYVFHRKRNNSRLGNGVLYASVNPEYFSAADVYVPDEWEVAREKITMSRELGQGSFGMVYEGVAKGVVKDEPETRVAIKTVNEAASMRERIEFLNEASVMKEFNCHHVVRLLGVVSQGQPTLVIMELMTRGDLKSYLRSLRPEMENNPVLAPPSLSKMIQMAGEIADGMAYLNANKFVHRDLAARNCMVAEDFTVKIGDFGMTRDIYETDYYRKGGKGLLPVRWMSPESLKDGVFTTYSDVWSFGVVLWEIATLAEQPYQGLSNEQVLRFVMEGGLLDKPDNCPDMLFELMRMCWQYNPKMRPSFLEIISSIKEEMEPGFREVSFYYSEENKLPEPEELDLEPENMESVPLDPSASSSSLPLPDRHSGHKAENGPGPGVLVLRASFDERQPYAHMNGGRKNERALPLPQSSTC

Row | Structure (SMILES) | pIC50
1 | N#C/C(=C\c1ccc2oc(=O)[nH]c2c1)C(=O)c1ccc(O)c(O)c1 [AGL 2263] | 7.15
2 | N#CC(=Cc1ccc(O)c(O)c1)C(=O)c1ccc2[nH]c(=O)oc2c1 (single isomer, unassigned) [GB16-11] | 6.70
3 | N#C/C(=C\c1ccc2[nH]c(=O)oc2c1)C(=O)c1ccc2[nH]c(=O)oc2c1 [GB18] | 5.38
4 | N#CC(=Cc1ccc(O)c(O)c1)C(=O)c1ccc2[nH]c(=O)oc2c1 (single isomer, unassigned) [GB 16-10] | 5.92
5 | N#C/C(=C\c1ccc(O)c(O)c1)C(=O)c1ccc(O)c(O)c1 [AG 538, reference compound] | 7.22
6 | N#C/C(=C\c1ccc2oc(=O)[nH]c2c1)C(=O)c1ccc2[nH]c(=O)oc2c1 [GB 17] | 4.92
